Laboratory results: patent publication US8569264B2, “Antibacterial 4,5-substituted aminoglycoside analogs having multiple substituents” (ISIS Pharmaceuticals, Inc., priority 2005, dated 2013)
≈ marks a conversion by molar mass, not a printed value.

What was measured:
Type in all cases: cell-based
P. aurginosa ATCC 29248 = assay: MIC, P. aurginosa ATCC 29248
Description: (§1) The MIC assays are carried out in 150 μL volume in duplicate in 96-well clear flat-bottom plates. The bacterial suspension from an overnight culture growth in appropriate medium is added to a solution of test compound in 4% DMSO in water. Final bacterial inoculum is approximately 10^5-10^6 CFU/well. […] Both ampicillin and tetracycline are used as antibiotic-positive controls in each screening assay for S. pyogenes, E. coli imp-, E. coli, S. aureus, E. faecalis, K. pneumoniae and P. vulgaris. Ciprofloxacin is used as an antibiotic positive control in each screening assay for P. aeruginosa.
(§2) The following compounds were prepared using methods illustrated in the previous examples. The compounds were also examined in standard bacterial assays against E. Coli, S. Aureus, P. aurginosa, K. pneumoniae, P. vulgaris, and A. baumannii to determine activities. Each of the bacterial cultures that are available from ATCC (www.atcc.org) is identified by its ATCC number. A. baumannii is gentamicin sensitive Acinetobacter baumannii #2 from Walter Reed.

E. coli ATCC 25922 = assay: MIC, E. coli ATCC 25922
Description: as §1, §2

P. aurginosa ATCC 25416 = assay: MIC, P. aurginosa ATCC 25416
Description: as §1, §2

[1] = system: gentamicin sensitive Acinetobacter baumannii #2 from Walter Reed; assay: MIC, A. baumannii WReed 2
Description: as §1, §2

K. pneumoniae ATCC 10031 = assay: MIC, K. pneumoniae ATCC 10031
Description: as §1, §2

P. vulgaris ATCC 8427 = assay: MIC, P. vulgaris ATCC 8427
Description: as §1, §2

E. Coli = assay: MIC, E. Coli; details: Example 109
Summary of the method: (§3)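 Broth microdilution in duplicate, 150 μL: overnight-culture bacteria were added to compound in 4% DMSO in water. Final inoculum was about 10^5–10^6 CFU/well.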

S. aureus ATCC 13709 = assay: MIC, S. aureus ATCC 13709
Description: as §1, §2

S. Aureus = assay: MIC, S. Aureus; details: Example 109
Summary of the method: as §3

| Structure (SMILES) | MIC P. aurginosa ATCC 29248 (P. aurginosa ATCC 29248; Example 111) [µM] | MIC E. coli ATCC 25922 (E. coli ATCC 25922; Example 111) [µM] | MIC P. aurginosa ATCC 25416 (P. aurginosa ATCC 25416; Example 111) [µM] | MIC A. baumannii WReed 2 ([1]; Example 111) [µM] | MIC K. pneumoniae ATCC 10031 (K. pneumoniae ATCC 10031; Example 111) [µM] | MIC P. vulgaris ATCC 8427 (P. vulgaris ATCC 8427; Example 111) [µM] | MIC E. Coli. (E. Coli) [µM] | MIC S. aureus ATCC 13709 (S. aureus ATCC 13709; Example 111) [µM] | MIC S. Aureus (S. Aureus) [µM] | other results |
| --- | --- | --- | --- | --- | --- | --- | --- | --- | --- | --- |
| NCC1OC(OC2C(CO)OC(OC3C(O)C(N)CC(N)C3OC3OC(CNCCCc4ccccc4)C(O)C(O)C3N)C2O)C(N)C(O)C1O (stereo not drawn) [Compound 15l] | >40 | 1.3 to 2.5 | >40 | 10 to 20 | 0.6 to 1.3 | >40 | 0.6 to 1.2 | 0.2 to 0.3 | 0.3 to 0.6 | – |
| NCC1OC(OC2C(CO)OC(OC3C(O)C(N)CC(N)C3OC3OC(CO)C(O)C(O)C3N)C2OCCNCCN2C(=O)c3cccc4cccc(c34)C2=O)C(N)C(O)C1O (stereo not drawn) [Compound 9ae] | – | – | – | – | – | – | – | – | – | MIC P. aurginosa ATCC 29248 (P. aurginosa ATCC 29248; Example 110): >40 µM; MIC E. coli ATCC 25922 (E. coli ATCC 25922; Example 110): >40 µM; MIC P. aurginosa ATCC 25416 (P. aurginosa ATCC 25416; Example 110): 5 to 10 µM; MIC A. baumannii WReed 2 ([1]; Example 110): 20 to 40 µM; MIC K. pneumoniae ATCC 10031 (K. pneumoniae ATCC 10031; Example 110): 5 to 10 µM; MIC P. vulgaris ATCC 8427 (P. vulgaris ATCC 8427; Example 110): 20 to 40 µM; MIC S. aureus ATCC 13709 (S. aureus ATCC 13709; Example 110): 10 to 20 µM |
| NCC1OC(OC2C(CO)OC(OC3C(O)C(N)CC(N)C3OC3OC(CNCCc4cccc(C(F)(F)F)c4)C(O)C(O)C3N)C2O)C(N)C(O)C1O (stereo not drawn) [Compound 15u] | >40 | 1.3 to 2.5 | >40 | 10 to 20 | 0.6 to 1.3 | >40 | – | 0.3 to 0.6 | – | – |
| NCC1OC(OC2C(CO)OC(OC3C(O)C(N)CC(N)C3OC3OC(CNCCc4ccc(F)cc4)C(O)C(O)C3N)C2O)C(N)C(O)C1O (stereo not drawn) [Compound 15o] | >40 | 1.3 to 2.5 | >40 | 10 to 20 | 0.6 to 1.3 | >40 | 0.6 to 1.2 | 0.3 to 0.6 | 0.2 to 0.3 | – |
| NCCCNCCO[C@H]1[C@H](O[C@@H]2[C@@H](O)[C@H](NC(=O)[C@@H](O)CCN)C[C@H](N)[C@H]2O[C@H]2O[C@H](CO)[C@@H](O)[C@H](O)[C@H]2N)O[C@H](CO)[C@H]1O[C@H]1O[C@@H](CN)[C@@H](O)[C@H](O)[C@H]1N [Compound 46b, N-1-haba-2″-O-(1,3-diamino)ethyl paromomycin] | – | – | – | – | – | – | – | – | – | MIC (P. aurginosa ATCC 29248; Example 110): 5 to 10 µM (≈ 4.08 to 8.17 µg/mL); MIC (E. coli ATCC 25922; Escherichia coli, ATCC25922, Example 110): 5 to 10 µM (≈ 4.08 to 8.17 µg/mL); MIC (P. aurginosa ATCC 25416; Example 110): 1.3 to 2.5 µM (≈ 1.06 to 2.04 µg/mL); MIC ([1]; Acinetobacter baumannii, Example 110): 2.5 to 5 µM (≈ 2.04 to 4.08 µg/mL); MIC (K. pneumoniae ATCC 10031; Klebsiella pneumoniae, ATCC10031, Example 110): 1.3 to 2.5 µM (≈ 1.06 to 2.04 µg/mL); MIC (P. vulgaris ATCC 8427; Proteus vulgaris, ATCC8427, Example 110): 5 to 10 µM (≈ 4.08 to 8.17 µg/mL); MIC (S. aureus ATCC 13709; Staphylococcus aureus, ATCC13709, Example 110): 1.2 to 2.5 µM (≈ 0.98 to 2.04 µg/mL) |
